From PMC11396129, “Oxindole–benzothiazole hybrids as CDK2 inhibitors and anticancer agents: design, synthesis and biological evaluation” (BMC Chemistry, 2024)

Tests used:
Format in all cases: cell-based, human
COLO 205 = experiment: NCI 60 panel growth inhibition (SRB), colon cancer; conditions: COLO 205, 10 μM
Procedure, shortened: (§1)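 Percentage growth came from SRB absorbance at five drug levels, scaled between a time-zero plate fixed with TCA at drug addition and untreated control.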

HCT-116 = experiment: NCI 60 panel growth inhibition (SRB), colon cancer; conditions: HCT-116, 10 μM
Procedure, shortened: as §1

KM12 = experiment: NCI 60 panel growth inhibition (SRB), colon cancer; conditions: KM12, 10 μM
Procedure, shortened: as §1

SW-620 = experiment: NCI 60 panel growth inhibition (SRB), colon cancer; conditions: SW-620, 10 μM
Procedure, shortened: as §1

HCT-15 = experiment: NCI 60 panel growth inhibition (SRB), colon cancer; conditions: HCT-15, 10 μM
Procedure, shortened: as §1

HCC-2998 = experiment: NCI 60 panel growth inhibition (SRB), colon cancer; conditions: HCC-2998, 10 μM
Procedure, shortened: as §1

IGROV1 = experiment: NCI 60 panel growth inhibition (SRB), ovarian cancer; conditions: IGROV1, 10 μM
Procedure, shortened: as §1

OVCAR-5 = experiment: as above; conditions: OVCAR-5, 10 μM
Procedure, shortened: as §1

OVCAR-3 = experiment: as above; conditions: OVCAR-3, 10 μM
Procedure, shortened: as §1

OVCAR-4 = experiment: as above; conditions: OVCAR-4, 10 μM
Procedure, shortened: as §1

OVCAR-8 = experiment: as above; conditions: OVCAR-8, 10 μM
Procedure, shortened: as §1

NCI/ADR-RES = experiment: as above; conditions: 10 μM
Procedure, shortened: as §1

SK-OV-3 = experiment: as above; conditions: SK-OV-3, 10 μM
Procedure, shortened: as §1

SF-295 = experiment: NCI 60 panel growth inhibition (SRB), CNS cancer; conditions: SF-295, 10 μM
Procedure, shortened: as §1

SF-268 = experiment: NCI 60 panel growth inhibition (SRB), CNS cancer; conditions: SF-268, 10 μM
Procedure, shortened: as §1

SNB-75 = experiment: NCI 60 panel growth inhibition (SRB), CNS cancer; conditions: SNB-75, 10 μM
Procedure, shortened: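 Selected compounds progressed from a single-dose mean-graph screen to five-concentration testing. Percentage growth, with negative values indicating cell kill below Tz, was computed per level, giving TGI among three parameters.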

SF-539 = experiment: NCI 60 panel growth inhibition (SRB), CNS cancer; conditions: SF-539, 10 μM
Procedure, shortened: as §1

SNB-19 = experiment: NCI 60 panel growth inhibition (SRB), CNS cancer; conditions: SNB-19, 10 μM
Procedure, shortened: as §1

EKVX = experiment: NCI 60 panel growth inhibition (SRB), non-small cell lung cancer; conditions: 10 μM
Procedure, shortened: as §1

NCI-H460 = experiment: as above; conditions: NCI-H460, 10 μM
Procedure, shortened: as §1

NCI-H522 = experiment: as above; conditions: NCI-H522, 10 μM
Procedure, shortened: as §1

HOP-62 = experiment: as above; conditions: HOP-62, 10 μM
Procedure, shortened: as §1

NCI-H322M = experiment: as above; conditions: 10 μM
Procedure, shortened: as §1

HOP-92 = experiment: as above; conditions: HOP-92, 10 μM
Procedure, shortened: as §1

NCI-H226 = experiment: as above; conditions: NCI-H226, 10 μM
Procedure, shortened: as §1

NCI-H23 = experiment: as above; conditions: NCI-H23, 10 μM
Procedure, shortened: as §1

A549/ATCC = experiment: as above; conditions: 10 μM
Procedure, shortened: as §1

[1] = system: NCI 60 cancer cell line panel; experiment: NCI 60 panel growth inhibition (SRB), whole panel; conditions: mean over NCI 60 panel, 10 μM
Procedure, shortened: as §1

SR = experiment: NCI 60 panel growth inhibition (SRB), leukemia; conditions: 10 μM
Procedure, shortened: as §1

CCRF-CEM = experiment: NCI 60 panel growth inhibition (SRB), leukemia; conditions: 10 μM
Procedure, shortened: as §1

MOLT-4 = experiment: NCI 60 panel growth inhibition (SRB), leukemia; conditions: MOLT-4, 10 μM
Procedure, shortened: as §1

HL-60(TB) = experiment: NCI 60 panel growth inhibition (SRB), leukemia; conditions: HL-60(TB), 10 μM
Procedure, shortened: as §1

K-562 = experiment: NCI 60 panel growth inhibition (SRB), leukemia; conditions: K-562, 10 μM
Procedure, shortened: as §1

RPMI-8226 = experiment: NCI 60 panel growth inhibition (SRB), leukemia; conditions: RPMI-8226, 10 μM
Procedure, shortened: as §1

SMILES | GI% (COLO 205) | GI% (HCT-116) [%] | GI% (KM12) [%] | GI% (SW-620) | GI% (HCT-15) [%] | GI% (HCC-2998) | GI% (IGROV1) | GI% (OVCAR-5) | GI% (OVCAR-3) | GI% (OVCAR-4) [%] | GI% (OVCAR-8) [%] | GI% (NCI/ADR-RES) [%] | GI% (SK-OV-3) [%] | GI% (SF-295) [%] | GI% (SF-268) | GI% (SNB-75) | GI% (SF-539) [%] | GI% (SNB-19) [%] | GI% (EKVX) [%] | GI% (NCI-H460) | other results
COc1cccc(-c2nc3ccccc3s2)c1OCC(=O)NN=C1C(=O)Nc2ccc(C)cc21 [Compound 9h, 2-(2-(Benzo[d]thiazol-2-yl)-6-methoxyphenoxy)-N′-(5-methyl-2-oxoindolin-3-ylidene)acetohydrazide] | 7.03% | 22.91 | 8.90 | – (GI% < 5%) | 5.56 | – (GI% < 5%) | 6.64% | – (GI% < 5%) | – (GI% < 5%) | 20.46 | 12.04 | 14.65 | 14.52 | 19.06 | – (GI% < 5%) | – (GI% < 5%) | 9.04 | 8.33 | 27.92 | – (GI% < 5%) | GI% (NCI-H522): – (GI% < 5%); GI% (HOP-62): – (GI% < 5%); GI% (NCI-H322M): 6.24%; GI% (HOP-92): 23.13%; GI% (NCI-H226): 26.01%; GI% (NCI-H23): 13.40%; GI% (A549/ATCC): 24.44%; Mean GI% [1]: 9.27%; GI% (SR): – (GI% < 5%); GI% (CCRF-CEM): 47.56%; GI% (MOLT-4): 43.65%; GI% (HL-60(TB)): – (GI% < 5%); GI% (K-562): 26.17%; GI% (RPMI-8226): 54.14%
COc1ccc2c(c1)C(=NNC(=O)COc1c(OC)cccc1-c1nc3ccccc3s1)C(=O)N2 [Compound 9i, 2-(2-(Benzo[d]thiazol-2-yl)-6-methoxyphenoxy)-N′-(5-methoxy-2-oxoindolin-3-ylidene)acetohydrazide] | – (GI% < 5%) | 17.55 | 8.46 | – (GI% < 5%) | 9.87 | – (GI% < 5%) | – (GI% < 5%) | – (GI% < 5%) | – (GI% < 5%) | 20.14 | 11.59 | 10.58 | 9.98 | 13.86 | – (GI% < 5%) | – (GI% < 5%) | 6.47 | 11.58 | 24.10 | – (GI% < 5%) | GI% (NCI-H522): 7.04%; GI% (HOP-62): – (GI% < 5%); GI% (NCI-H322M): 5.89%; GI% (HOP-92): 31.66%; GI% (NCI-H226): 29.04%; GI% (NCI-H23): 11.65%; GI% (A549/ATCC): 18.26%; Mean GI% [1]: 6.32%; GI% (SR): – (GI% < 5%); GI% (CCRF-CEM): 44.24%; GI% (MOLT-4): 45.30%; GI% (HL-60(TB)): – (GI% < 5%); GI% (K-562): 21.95%; GI% (RPMI-8226): 47.68%
